# According to ChEMBL document CHEMBL1201862, “PubChem BioAssay data set” (2004):
# Activity calls are given as the source filed them.
# Tests used:
# [1] = target: T1, Oxysterols receptor LXR-beta (Homo sapiens, UniProt P55055); type: functional, cell-based;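 also: agonist activity at LXR measured by a cell-based luminescence readout across a dose range, run as a counterscreen for daf-12 agonists; HEK293 cells with Gal4-LXR fusion and GAL4-driven luciferase reporter; potency for activation of Gal4-LXR reporter so compounds are agonists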
# T1 sequence (P55055 whole entry): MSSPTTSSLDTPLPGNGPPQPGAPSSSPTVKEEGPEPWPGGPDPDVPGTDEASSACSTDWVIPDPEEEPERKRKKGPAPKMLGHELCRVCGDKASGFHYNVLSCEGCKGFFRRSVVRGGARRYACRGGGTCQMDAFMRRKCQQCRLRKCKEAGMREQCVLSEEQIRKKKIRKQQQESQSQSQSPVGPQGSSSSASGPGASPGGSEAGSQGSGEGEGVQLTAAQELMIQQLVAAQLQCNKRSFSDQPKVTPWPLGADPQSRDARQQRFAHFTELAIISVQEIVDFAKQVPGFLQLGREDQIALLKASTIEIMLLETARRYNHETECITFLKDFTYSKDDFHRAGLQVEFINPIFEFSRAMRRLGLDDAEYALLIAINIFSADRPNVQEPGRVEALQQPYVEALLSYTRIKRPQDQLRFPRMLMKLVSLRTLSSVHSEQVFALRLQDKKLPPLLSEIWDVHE
# [2] = target: T2, Rac GTPase-activating protein 1 (Homo sapiens, UniProt Q9H0H5); assay: blockers of MgcRacGAP-driven Rac1 GTP hydrolysis – biochemical, ADP Hunter fluorescence, primary and confirmatory, confirmation (AID 624330); type: functional
# T2 sequence (Q9H0H5 whole entry): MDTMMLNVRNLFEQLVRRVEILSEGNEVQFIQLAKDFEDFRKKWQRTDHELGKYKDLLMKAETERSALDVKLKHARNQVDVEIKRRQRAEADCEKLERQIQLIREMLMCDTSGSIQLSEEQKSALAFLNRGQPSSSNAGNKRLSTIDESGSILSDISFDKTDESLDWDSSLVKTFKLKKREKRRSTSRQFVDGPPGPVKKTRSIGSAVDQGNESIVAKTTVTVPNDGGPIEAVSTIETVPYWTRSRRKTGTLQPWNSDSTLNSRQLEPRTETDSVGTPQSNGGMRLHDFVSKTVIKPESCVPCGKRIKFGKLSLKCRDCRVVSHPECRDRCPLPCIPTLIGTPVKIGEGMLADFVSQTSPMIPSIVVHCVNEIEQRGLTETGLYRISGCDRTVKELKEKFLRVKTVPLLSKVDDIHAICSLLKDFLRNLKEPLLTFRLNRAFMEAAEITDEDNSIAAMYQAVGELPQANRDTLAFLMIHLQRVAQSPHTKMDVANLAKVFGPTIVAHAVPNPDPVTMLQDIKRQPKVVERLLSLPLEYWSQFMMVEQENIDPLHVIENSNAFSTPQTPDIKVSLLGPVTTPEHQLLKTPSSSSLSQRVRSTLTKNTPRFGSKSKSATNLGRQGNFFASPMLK
# [3] = non-specific 3'UTR reporter inhibition in Clone20-Shn3RL – cell-based, Renilla luciferase, cherry-picked, counter-screen for Shn3 inhibitor project, dose response (AID 624133); type: functional
# [4] = Trypanosoma cruzi growth suppression in host cells – NIH3T3 host cells, beta-gal luminescence, confirmation (AID 2044); type: functional, cell-based;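 also: intracellular parasites grown in NIH/3T3 mouse fibroblasts as host cells; luminescent beta-galactosidase reporter signal from transgenic T. cruzi replicating inside host cells; inhibitors lower the luminescence signal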
# [5] = reduction of Shn3 3'UTR-driven luciferase in osteoblasts – cell-based, Clone20 osteoblasts, firefly luciferase, cherry-picked, dose response (AID 624132); type: functional;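 also: firefly luciferase luminescence from reporter carrying the Shn3 3'UTR in osteoblasts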
# [6] = viability loss in HeLa cells – cytotoxicity control for MgcRacGAP inhibitor project, dose response (AID 624300); type: functional
# [7] = Luminescence Cell-Based Dose Retest to Confirm Inhibitors of Cancer Stem Cells. [Related pubchem assays (depositor defined):AID2717, AID2721]; type: functional; settings: Homo sapiens
# [8] = NIH3T3 cell viability loss – ATP luminescence, mouse fibroblasts, counter-screen, dose response (AID 2010); type: functional, cell-based;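 also: cells exposed to compound for about 90 hours before reading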
# [9] = loss of viability in HepG2 cells – cell-based, CellTiter-Glo, cherry-picked, cytotoxicity control for Shn3 inhibitor project, dose response (AID 624134); type: functional
# [10] = target: T3, Short transient receptor potential channel 4 (Mus musculus, UniProt Q9QUQ5); assay: calcium entry via TRPC4 opening agents – cell-based, HEK293 TRPC4/mu-opioid, Fluo-4 calcium, dose response (AID 434937); type: functional
# T3 sequence (Q9QUQ5 whole entry): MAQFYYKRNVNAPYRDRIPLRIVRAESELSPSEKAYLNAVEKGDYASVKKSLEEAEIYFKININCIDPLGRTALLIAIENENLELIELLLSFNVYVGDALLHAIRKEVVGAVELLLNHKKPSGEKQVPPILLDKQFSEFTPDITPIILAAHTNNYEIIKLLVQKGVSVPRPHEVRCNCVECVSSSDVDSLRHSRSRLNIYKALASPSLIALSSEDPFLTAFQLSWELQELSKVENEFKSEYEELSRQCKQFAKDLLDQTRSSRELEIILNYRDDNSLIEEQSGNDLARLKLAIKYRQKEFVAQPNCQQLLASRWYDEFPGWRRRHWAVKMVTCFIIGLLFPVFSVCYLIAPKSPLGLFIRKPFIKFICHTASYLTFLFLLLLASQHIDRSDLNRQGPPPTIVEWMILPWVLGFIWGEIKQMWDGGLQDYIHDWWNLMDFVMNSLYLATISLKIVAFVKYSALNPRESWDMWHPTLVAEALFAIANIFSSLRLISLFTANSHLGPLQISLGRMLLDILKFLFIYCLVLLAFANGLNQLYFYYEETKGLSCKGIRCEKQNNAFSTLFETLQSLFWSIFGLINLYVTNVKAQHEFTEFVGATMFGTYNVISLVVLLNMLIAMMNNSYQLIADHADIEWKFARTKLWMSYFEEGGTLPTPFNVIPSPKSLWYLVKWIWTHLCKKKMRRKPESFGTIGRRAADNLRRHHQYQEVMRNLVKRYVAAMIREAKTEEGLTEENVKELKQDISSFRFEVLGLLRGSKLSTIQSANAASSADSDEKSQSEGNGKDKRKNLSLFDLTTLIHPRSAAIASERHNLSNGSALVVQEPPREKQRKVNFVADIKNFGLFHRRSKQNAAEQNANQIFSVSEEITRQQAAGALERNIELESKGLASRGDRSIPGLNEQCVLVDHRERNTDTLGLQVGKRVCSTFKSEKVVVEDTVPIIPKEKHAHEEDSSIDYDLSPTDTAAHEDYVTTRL
# [11] = microbe, parasite or virus in culture; type: functional; settings: Mycobacterium tuberculosis
# [12] = target: Induced myeloid leukemia cell differentiation protein Mcl-1 (Homo sapiens, UniProt Q07820); type: functional
# [13] = target: T4, Fructose-bisphosphate aldolase (Mycobacterium tuberculosis, UniProt P9WQA3); assay: Fluorescence-based biochemical high throughput dose response assay for inhibitors of the fructose-bisphosphate aldolase (FBA) of M. tuberculosis.; type: functional
# T4 sequence (P9WQA3 whole entry): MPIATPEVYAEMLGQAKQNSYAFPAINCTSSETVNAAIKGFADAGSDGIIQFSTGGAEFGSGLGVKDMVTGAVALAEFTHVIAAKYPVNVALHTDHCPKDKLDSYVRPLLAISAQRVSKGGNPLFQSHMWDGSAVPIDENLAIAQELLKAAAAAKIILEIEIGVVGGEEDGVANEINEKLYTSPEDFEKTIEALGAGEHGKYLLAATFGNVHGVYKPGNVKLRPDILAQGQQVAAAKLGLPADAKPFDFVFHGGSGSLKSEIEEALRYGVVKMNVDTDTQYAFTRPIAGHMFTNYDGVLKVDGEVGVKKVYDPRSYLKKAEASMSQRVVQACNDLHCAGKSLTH
# Mu-type opioid receptor = Mu-type opioid receptor (Homo sapiens, UniProt P35372); type: functional, cell-based;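 also: U2OS cells with beta-arrestin recruitment to OPRM1 by beta-gal complementation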
# [14] = target: 5-hydroxytryptamine receptor 2A (Mus musculus, UniProt P35363); type: functional, cell-based;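 also: CHO-K1 cells with tagged receptor and beta-arrestin; agonist potency measured as compound-induced activation of the receptor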
# Beta-galactosidase = Beta-galactosidase (Escherichia coli, UniProt Q8VNN2); assay: Dose response counterscreen for EBI2 assay utilizing the enzyme, b-galactosidase.; type: functional
# [15] = intracellular Trypanosoma cruzi inhibitors in host cells – cell-based, plate reader, cherry-pick samples, set 3, dose response (AID 651818); type: functional;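 also: compounds incubated with infected cells for about four days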
# [16] = Dd2 parasite growth inhibition in erythrocytes – SYBR Green, dry powder samples, set 9, dose response (AID 1159568); type: functional, cell-based
# [17] = off-target signal loss in HeLa-CEM21 co-culture – HeLa F-luc CTL cells, cherry-picked, counter-screen for HIV-1 Env fusion inhibitor project, dose response (AID 652040); type: functional, cell-based;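 also: potency for signal decrease marking cytotoxic or nonspecific inhibition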
# [18] = viability loss in CEM21 cells – cell-based, CellTiter-Glo luminescence, cherry-picked, cytotoxicity control for viral fusion inhibitor project, dose response (AID 652042); type: functional;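 also: potency for signal decrease meaning cytotoxicity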
# [19] = blockers of HIV-1 envelope-mediated cell-cell fusion – cherry-pick, dose response (AID 652057); type: functional, cell-based
# [20] = THP-1 cell cytotoxicity, dose response, cytotoxicity control for non-replicating M. tuberculosis project (AID 489025); type: functional
# [21] = HIV-1 AD8 envelope cell-cell fusion blockers – cherry-pick, dose response (AID 652062); type: functional, cell-based;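 also: luciferase signal from cell-cell fusion driven by HIV-1 clade B AD8 Env; potency is for inhibitors of fusion seen as a drop in luminescence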
# [22] = blockers of HIV-1 ZM109 envelope-driven cell-cell fusion – HeLa effector, CEM target cells, luciferase, cherry-pick, dose response (AID 652058); type: functional, cell-based;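 also: luciferase signal from HIV-1 Env mediated cell-cell fusion of effector and target cells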
# cells [23] = type: functional, cell-based
# [24] = target: T5, Trace amine-associated receptor 1 (Homo sapiens, UniProt Q96RJ0); assay: Fluorescence-based cell-based high throughput dose response assay to identify agonists of the human trace amine associated receptor 1 (TAAR1).; type: functional
# T5 sequence (Q96RJ0 whole entry): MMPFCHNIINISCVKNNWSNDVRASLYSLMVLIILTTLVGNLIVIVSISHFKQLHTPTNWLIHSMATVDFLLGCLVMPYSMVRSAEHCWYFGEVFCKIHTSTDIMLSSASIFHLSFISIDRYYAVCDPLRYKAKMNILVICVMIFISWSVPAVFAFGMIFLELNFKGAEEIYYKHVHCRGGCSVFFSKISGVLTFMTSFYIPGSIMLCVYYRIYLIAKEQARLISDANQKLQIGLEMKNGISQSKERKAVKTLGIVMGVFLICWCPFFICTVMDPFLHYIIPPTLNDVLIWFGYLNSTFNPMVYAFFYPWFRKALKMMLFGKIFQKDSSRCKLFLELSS
# cells [25] = type: functional, cell-based; remark: listed apart in the source
# [26] = target: T5, Trace amine-associated receptor 1; assay: Counterscreen for agonists of the human trace amine associated receptor 1 (hTAAR1): Fluorescence-based cell-based high throughput dose response assay to identify hTAAR1 agonist that also desensitize TAAR1 receptor response.; type: functional
# Chain of Beta-galactosidase (Q8VNN2 whole entry): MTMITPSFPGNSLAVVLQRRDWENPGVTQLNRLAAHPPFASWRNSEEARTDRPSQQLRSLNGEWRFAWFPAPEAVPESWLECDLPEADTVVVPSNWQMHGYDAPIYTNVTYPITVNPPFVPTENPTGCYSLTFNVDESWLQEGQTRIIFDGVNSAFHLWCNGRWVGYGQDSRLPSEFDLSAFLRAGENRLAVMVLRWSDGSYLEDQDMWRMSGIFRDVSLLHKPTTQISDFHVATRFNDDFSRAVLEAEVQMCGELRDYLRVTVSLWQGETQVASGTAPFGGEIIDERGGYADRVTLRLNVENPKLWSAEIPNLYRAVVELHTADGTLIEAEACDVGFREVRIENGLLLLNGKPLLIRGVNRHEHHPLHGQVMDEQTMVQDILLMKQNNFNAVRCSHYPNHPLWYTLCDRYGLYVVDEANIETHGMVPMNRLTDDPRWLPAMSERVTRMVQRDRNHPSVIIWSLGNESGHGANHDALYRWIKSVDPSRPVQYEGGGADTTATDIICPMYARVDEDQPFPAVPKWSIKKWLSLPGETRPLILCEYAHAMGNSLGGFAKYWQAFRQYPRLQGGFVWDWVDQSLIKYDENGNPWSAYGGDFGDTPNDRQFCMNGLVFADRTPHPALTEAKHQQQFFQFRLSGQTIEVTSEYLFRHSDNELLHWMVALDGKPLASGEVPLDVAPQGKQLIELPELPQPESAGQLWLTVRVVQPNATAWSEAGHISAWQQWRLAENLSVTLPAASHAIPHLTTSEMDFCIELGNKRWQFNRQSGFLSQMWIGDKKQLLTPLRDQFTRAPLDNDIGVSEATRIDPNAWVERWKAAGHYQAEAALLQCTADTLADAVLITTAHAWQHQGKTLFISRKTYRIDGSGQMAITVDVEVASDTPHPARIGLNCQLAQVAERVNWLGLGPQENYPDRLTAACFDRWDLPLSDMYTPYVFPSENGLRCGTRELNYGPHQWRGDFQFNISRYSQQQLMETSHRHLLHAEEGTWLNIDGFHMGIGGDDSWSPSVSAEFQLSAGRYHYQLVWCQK
# Chain of Mu-type opioid receptor (P35372 whole entry): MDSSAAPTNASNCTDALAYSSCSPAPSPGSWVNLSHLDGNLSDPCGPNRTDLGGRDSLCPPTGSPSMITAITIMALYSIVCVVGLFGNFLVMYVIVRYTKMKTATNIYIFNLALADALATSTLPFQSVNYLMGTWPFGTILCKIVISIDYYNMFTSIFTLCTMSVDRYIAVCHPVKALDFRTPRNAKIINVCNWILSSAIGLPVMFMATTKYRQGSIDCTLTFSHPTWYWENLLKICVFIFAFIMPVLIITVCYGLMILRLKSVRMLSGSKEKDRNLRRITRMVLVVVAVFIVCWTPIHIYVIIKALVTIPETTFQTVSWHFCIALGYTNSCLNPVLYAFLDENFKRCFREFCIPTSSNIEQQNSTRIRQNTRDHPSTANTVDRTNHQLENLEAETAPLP
# Chain of 5-hydroxytryptamine receptor 2A (P35363 whole entry): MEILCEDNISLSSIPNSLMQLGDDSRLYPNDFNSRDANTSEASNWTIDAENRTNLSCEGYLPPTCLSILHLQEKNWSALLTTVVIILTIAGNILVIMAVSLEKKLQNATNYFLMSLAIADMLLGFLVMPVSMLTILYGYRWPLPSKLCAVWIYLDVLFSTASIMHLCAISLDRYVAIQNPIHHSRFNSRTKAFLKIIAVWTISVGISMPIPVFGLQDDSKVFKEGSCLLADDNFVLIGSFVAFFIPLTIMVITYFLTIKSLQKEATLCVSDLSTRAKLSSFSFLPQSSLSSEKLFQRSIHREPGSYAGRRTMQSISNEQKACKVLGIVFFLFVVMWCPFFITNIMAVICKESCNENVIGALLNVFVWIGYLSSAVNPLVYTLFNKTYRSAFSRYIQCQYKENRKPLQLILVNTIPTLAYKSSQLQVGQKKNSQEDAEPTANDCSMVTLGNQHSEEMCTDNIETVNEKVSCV
# Chain of Induced myeloid leukemia cell differentiation protein Mcl-1 (Q07820 whole entry): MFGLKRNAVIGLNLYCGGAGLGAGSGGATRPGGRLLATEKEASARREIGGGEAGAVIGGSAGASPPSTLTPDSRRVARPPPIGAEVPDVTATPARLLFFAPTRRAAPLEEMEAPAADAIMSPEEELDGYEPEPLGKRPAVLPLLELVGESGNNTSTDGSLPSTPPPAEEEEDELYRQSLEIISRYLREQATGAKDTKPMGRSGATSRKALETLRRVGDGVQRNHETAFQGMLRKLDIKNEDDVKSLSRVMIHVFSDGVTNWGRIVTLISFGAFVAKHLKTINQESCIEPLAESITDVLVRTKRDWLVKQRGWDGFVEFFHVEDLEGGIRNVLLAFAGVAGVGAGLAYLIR
smiles,measurement,setting,value
Cc1ccnc(NC(=O)CCNS(=O)(=O)c2ccc(C)c(C)c2)c1,EC50,[1],> 67.6 µM (inactive)
COc1ccc(CN2CCC(N(CCc3ccccc3)Cc3ccccc3)CC2)c(OC)c1,IC50,[2],96.6 µM (active)
same,AC50,[3],8.85 µM (active)
same,EC50,[4],1.49 µM (active)
same,AC50,[5],8.1 µM (active)
same,CC50,[6],56.3 µM (active)
same,AC50,[7],5.9 µM (active)
same,EC50,[8],> 60 µM (inconclusive)
same,AC50,[9],13.6 µM (active)
same,EC50,[10],5.31 µM (active)
COc1cc(/C=N/n2c(-c3ccc4c(c3)NC(=O)CO4)cs/c2=N\c2cccc(C)c2)ccc1O,CC50,[11],25 µM (active)
Clc1cccc(N/N=C/c2ccc(N3CCOCC3)s2)c1,IC50,[2],71.3 µM (active)
same,CC50,[6],83.7 µM (active)
same,IC50,[12],13.4 µM (active)
CCOC(=O)N1CCN(CC(O)COC2CC(C)CCC2C(C)C)CC1 (configuration not stated),IC50,[13],> 9.99 µM (inactive)
O=C(c1cccc(C(=O)N(c2ccccn2)C2CCCCC2)c1)N(c1ccccn1)C1CCCCC1,EC50,Mu-type opioid receptor,92.5 µM (inactive)
same,EC50,[14],76.1 µM (inactive)
Cc1ccc(C(=O)CC(SCC(=O)O)c2ccc([N+](=O)[O-])cc2)cc1 (configuration not stated),CC50,[11],30.6 µM (active)
O=C(COc1ccc(Br)cc1)N1CCN(Cc2ccc3c(c2)OCO3)CC1,IC50,Beta-galactosidase,> 80 µM (inactive)
C[C@@H]1CN([C@@H](C)CO)C(=O)c2cccc(NC(=O)c3ccc(-c4nccs4)cc3)c2O[C@H]1CN(C)C(=O)Nc1ccc(C(F)(F)F)cc1,AC50,[15],3.55 µM (active)
same,AC50,[16],6.3 µM (active)
CCOC(=O)C1(CCOc2ccccc2)CCN(C(=O)c2ccc(-n3cccn3)cc2)CC1,IC50,Beta-galactosidase,> 80 µM (inactive)
COc1ccc(C2Nc3ccccc3C(=O)N2NS(C)(=O)=O)c(OC)c1 (configuration not stated),IC50,[13],> 1.11 µM (active)
Cc1cc(OCCOCCNCc2ccccc2)ccc1C(C)C,AC50,[17],2.26 µM (active)
same,AC50,[18],45.2 µM (active)
same,AC50,[19],1.55 µM (active)
same,CC50,[20],> 40 µM (active)
same,AC50,[21],4.8 µM (active)
same,AC50,[22],1.86 µM (active)
CN(C)C=O.O=C(/C=C/c1cccc(F)c1)Nc1ccc(S(=O)(=O)Nc2ncccn2)cc1,IC50,[13],> 9.99 µM (inactive)
CCCC[C@@H]1CNCCN1CCc1cccc2ccccc12,IC50,cells [23],> 29.9 µM (inactive)
same,EC50,[24],4.01 µM (active)
same,EC50,cells [25],> 29.9 µM (inactive)
same,IC50,[26],3.52 µM (active)
O=[N+]([O-])c1ccc2c(c1)Nc1nc3ccccc3nc1N2,EC50,[1],> 67.5 µM (inactive)
Oc1ccc(CN2CCN(c3ncccn3)CC2)cc1,EC50,Mu-type opioid receptor,92.4 µM (inactive)
same,EC50,[14],0.496 µM (active)
CN(C)c1ccc2c(c1)[C@@H]1C[C@@H](CC(=O)NC3CCCCC3)O[C@@H](CO)[C@@H]1O2,AC50,[16],20.2 µM (active)
O=C(C[C@H]1C[C@@H]2c3cc(NC(=O)c4ccc5c(c4)OCO5)ccc3O[C@@H]2[C@@H](CO)O1)NCc1ccc(Oc2ccccc2)cc1,AC50,[16],28.6 µM (active)
C/C(=N/NC(=O)c1cc(C(C)C)n[nH]1)c1cccs1,EC50,[1],> 67.6 µM (inactive)
COc1cc2c(cc1NC(=S)NC(=O)/C=C/c1ccco1)oc1ccccc12,IC50,Beta-galactosidase,> 80 µM (inactive)
Nc1sc2c(c1C(=O)NCCc1ccccc1)CCCC2,IC50,cells [23],> 29.9 µM (inactive)
same,EC50,[24],1.35 µM (active)
same,EC50,cells [25],> 29.9 µM (inactive)
same,IC50,[26],4.88 µM (active)
COc1cccc(-n2cc(CNCc3cn(C)nc3-c3ccccc3F)cn2)c1,EC50,Mu-type opioid receptor,92.5 µM (inactive)
same,EC50,[14],0.772 µM (active)
